From patent US11414450B1, “Aminoglycosides and uses thereof” (REVAGENIX, INC., priority 2017, dated 2022)
Converted amounts (≈) assume the structure as drawn.

Experiments:
[1] = tested on: P. aeruginosa Δefflux (MexAB-OprM, MexCD-OprJ, MexEF-OprN knocked out); assay: MIC broth microdilution, P. aeruginosa Δefflux strain; type: cell-based
Experimental: (§1) Minimum inhibitory concentrations for the example compounds herein are determined by the broth microdilution method in accordance with the Clinical and Laboratory Standards Institute (CLSI) guidelines. In brief, organism suspensions are adjusted to a 0.5 McFarland standard to yield a final inoculum between 3×10^5 and 7×10^5 colony-forming units (CFU)/mL. Compound dilutions and inocula are made in sterile, cation adjusted Mueller-Hinton Broth (Beckton Dickinson). The inoculum is prepared by suspension of a colony from an agar plate that is prepared the previous day. Bacteria are suspended in sterile saline and added to each assay plate to obtain a final concentration of 5×10^5 CFU/mL. An inoculum volume of 100 μL is added to wells containing 100 μL of broth with 2-fold serial dilutions of the compound. All inoculated microdilution trays are incubated in ambient air at 35° C. for 18-24 hours. Following incubation, the lowest concentration of the compound that prevents visible growth (OD 600 nm<0.05) is recorded as the MIC. […] Performance of the assay is monitored by the use of laboratory quality-control strains and a compound with a defined MIC spectrum (such as levofloxacin), in accordance with CLSI guidelines. Compounds are tested against multiple microbiologic panels. Panels include: 1) a multi-species primary screening panel that includes multiple defined AG-R mechanisms; 2) a panel of isogenic strains carrying different common mechanisms of AG-R that allows characterization of the SAR for AMEs, RMTs, and entry and efflux resistance mechanisms; and 3) panels of recent clinical isolates selected from Phase 3 studies and ongoing global surveillance.

[2] = tested on: E. coli Δefflux (tolC efflux pump knocked-out); assay: MIC broth microdilution, E. coli Δefflux strain (tolC knocked out); type: cell-based; conditions: Table 1
Experimental: as §1

E. coli efflux parent = assay: MIC broth microdilution, E. coli efflux parent strain; type: cell-based; conditions: Table 1; geometric mean
Experimental: as §1

P. aeruginosa ATCC 27853 = assay: MIC broth microdilution, P. aeruginosa ATCC 27853; type: cell-based; conditions: for MIC: Pseudomonas aeruginosa, ATCC27853, P. aeruginosa ATCC 27853, contains aph(3′)-IIb, read-out: Geometric Mean MIC values, P. aeruginosa ATCC 27853
Experimental: as §1

[3] = tested on: P. aeruginosa efflux parent; assay: MIC broth microdilution, P. aeruginosa efflux parent strain; type: cell-based; conditions: for MIC: Pseudomonas aeruginosa, P. aeruginosa efflux parent strain, read-out: Geometric Mean MIC values, P. aeruginosa efflux parent
Experimental: as §1

E. coli ATCC 25922 = assay: Minimum inhibitory concentration (broth microdilution, CLSI), E. coli ATCC 25922; type: cell-based; conditions: Table 1; geometric mean
Experimental: as §1

translation = assay: Translation Inhibition Assay; type: biochemical
Text: Biological Example 2: Translation Inhibition Assay

[4] = Table 1, MexEF-OprN efflux pumps knocked out
[5] = P. aeruginosa Δefflux, MexEF-OprN efflux pumps knocked out
[6] = Table 2, MexEF-OprN efflux pumps knocked out
[7] = Table 2, strain contains aph(3′)-IIb

SMILES | Geometric Mean MIC values, P. aeruginosa Δefflux [1, 6] [µg/mL] | Geometric Mean MIC values, P. aeruginosa ATCC 27853 (P. aeruginosa ATCC 27853; [7]) [µg/mL] | Geometric Mean MIC values, P. aeruginosa efflux parent ([3]; Table 2) [µg/mL] | IC50 (translation; Table 2) [nM] | other results
NCC1OC(OC2C(CO)OC(OC3C(O)C(N)CC(N)C3OC3OC(CN)C(O)C(F)C3N)C2O)C(N)C(O)C1O (stereo not shown) [drawing 853] | – | – | – | – | Geometric Mean MIC values, P. aeruginosa Δefflux [1, 4]: 0.5 µg/mL; Geometric Mean MIC values, E. coli Δefflux [2]: 1 µg/mL; Geometric Mean MIC values, E. coli efflux parent (E. coli efflux parent): 2 µg/mL; Geometric Mean MIC values, P. aeruginosa ATCC 27853 (P. aeruginosa ATCC 27853; Table 1, geometric mean): 1 µg/mL; Geometric Mean MIC values, P. aeruginosa efflux parent ([3]; Table 1, geometric mean): 2 µg/mL; Geometric Mean MIC values, E. coli ATCC 25922 (E. coli ATCC 25922): 2 µg/mL; IC50 (translation; Table 1): 10 nM
NC[C@@H]1CC[C@@H](N)[C@@H](O[C@@H]2[C@@H](N)[C@H](O)[C@@H](N)[C@H](O)[C@H]2O[C@@H]2O[C@H](CO)[C@@H](O[C@H]3O[C@@H](CN)[C@@H](O)[C@H](O)[C@H]3N)[C@H]2O)O1 [drawing 890] | – | – | – | – | Geometric Mean MIC values, P. aeruginosa Δefflux [1, 5]: 0.25 µg/mL; MIC (P. aeruginosa ATCC 27853): 0.5 µg/mL (≈ 0.835 µM); MIC [3]: 1 µg/mL (≈ 1.67 µM); IC50 (translation; translation inhibition assay): 7.9 nM
CC(N)C1CCC(N)C(OC2C(N)CC(N)C(O)C2OC2OC(CO)C(OC3OC(CN)C(O)C(O)C3N)C2O)O1 (stereo not shown) [drawing 849] | – | – | – | – | Geometric Mean MIC values, P. aeruginosa Δefflux [1, 4]: 0.5 µg/mL; Geometric Mean MIC values, E. coli Δefflux [2]: 1 µg/mL; Geometric Mean MIC values, E. coli efflux parent (E. coli efflux parent): 1 µg/mL; Geometric Mean MIC values, P. aeruginosa ATCC 27853 (P. aeruginosa ATCC 27853; Table 1, geometric mean): 0.71 µg/mL; Geometric Mean MIC values, P. aeruginosa efflux parent ([3]; Table 1, geometric mean): 1 µg/mL; Geometric Mean MIC values, E. coli ATCC 25922 (E. coli ATCC 25922): 1.6 µg/mL; IC50 (translation; Table 1): 14 nM
CCC(N)C1CCC(N)C(OC2C(N)CC(N)C(O)C2OC2OC(CO)C(OC3OC(CN)C(O)C(O)C3N)C2O)O1 (stereo not shown) [drawing 851] | – | – | – | – | Geometric Mean MIC values, P. aeruginosa Δefflux [1, 4]: 0.5 µg/mL; Geometric Mean MIC values, E. coli Δefflux [2]: 1 µg/mL; Geometric Mean MIC values, E. coli efflux parent (E. coli efflux parent): 2 µg/mL; Geometric Mean MIC values, P. aeruginosa ATCC 27853 (P. aeruginosa ATCC 27853; Table 1, geometric mean): 2 µg/mL; Geometric Mean MIC values, P. aeruginosa efflux parent ([3]; Table 1, geometric mean): 2 µg/mL; Geometric Mean MIC values, E. coli ATCC 25922 (E. coli ATCC 25922): 2 µg/mL; IC50 (translation; Table 1): 32 nM
NC[C@@H]1O[C@H](O[C@H]2[C@@H](O)[C@H](O[C@@H]3[C@@H](O)[C@H](N)C[C@H](N)[C@H]3O[C@H]3O[C@H](CN)[C@@H](O)[C@H](O)[C@H]3N)O[C@@H]2CO)[C@H](N)[C@@H](O)[C@@H]1O [drawing 881, neomycin, reference compound] | 2.2 | 1 | 6.8 | 7.3 | –
NC[C@@H]1O[C@H](O[C@H]2[C@@H](O)[C@H](O[C@@H]3[C@@H](O)[C@H](N)C[C@H](N)[C@H]3O[C@H]3O[C@H](CN)C(F)(F)[C@H](O)[C@H]3N)O[C@@H]2CO)[C@H](N)[C@@H](O)[C@@H]1O | 1 | 64 | 8 | 13 | –
CCC(N)C1CCC(N)C(OC2C(N)CC(N)C(O)C2OC2OC(CO)C(OC3OC(CN)C(O)C(O)C3N)C2O)O1 (stereo not shown) [drawing 877] | 0.5 | 1 | 2 | 26 | –
NCC1OC(OC2C(CO)OC(OC3C(O)C(N)CC(N)C3OC3OC(C4(N)CC4)CCC3N)C2O)C(N)C(O)C1O (stereo not shown) [drawing 875] | 0.25 | 2 | 2 | 7.5 | –
NC[C@@H]1O[C@H](O[C@H]2[C@@H](O)[C@H](O[C@@H]3[C@@H](O)[C@H](N)C[C@H](N)[C@H]3O[C@H]3O[C@H](CN)[C@@H](O)C(F)(F)[C@H]3N)O[C@@H]2CO)[C@H](N)[C@@H](O)[C@@H]1O | 1 | 4 | 8 | 62 | –
NCC1OC(OC2C(N)CC(N)C(O)C2OC2OC(CO)C(OC3OC(CN)C(O)C(O)C3N)C2O)C(N)CC1O (stereo not shown) [drawing 880, reference compound] | 0.25 | 0.25 | 0.5 | 8.5 | –
NC[C@@H]1O[C@H](O[C@H]2[C@@H](O)[C@H](O[C@@H]3[C@@H](O)[C@H](N)C[C@H](N)[C@H]3O[C@H]3O[C@H](CN)[C@H](O)[C@H](F)[C@H]3N)O[C@@H]2CO)[C@H](N)[C@@H](O)[C@@H]1O | 0.5 | 1 | 2 | 18 | –
CC(N)C1CCC(N)C(OC2C(N)CC(N)C(O)C2OC2OC(CO)C(OC3OC(CN)C(O)C(O)C3N)C2O)O1 (stereo not shown) [drawing 873] | 0.42 | 0.84 | 1.2 | 12 | –
CC(N)C1CCC(N)C(OC2C(N)CC(N)C(O)C2OC2OC(CO)C(OC3OC(CN)C(O)C(O)C3N)C2O)O1 (stereo not shown) [drawing 874] | 0.5 | 2 | 4 | 14 | –
CO[C@@H]1[C@@H](O[C@@H]2O[C@H](CO)[C@@H](O[C@H]3O[C@@H](CN)[C@@H](O)[C@H](O)[C@H]3N)[C@H]2O)[C@H](O[C@H]2O[C@H](CN)CC[C@H]2N)[C@@H](N)C[C@H]1N [drawing 891] | – | – | – | – | Geometric Mean MIC values, P. aeruginosa Δefflux [1, 5]: 0.25 µg/mL; MIC (P. aeruginosa ATCC 27853): 1 µg/mL (≈ 1.68 µM); MIC [3]: 1 µg/mL (≈ 1.68 µM); IC50 (translation; translation inhibition assay): 5.7 nM
NCC1OC(OC2C(CO)OC(OC3C(O)C(N)CC(N)C3OC3OC(CN)C(O)C(F)C3O)C2O)C(N)C(O)C1O (stereo not shown) [drawing 883] | 0.5 | 2 | 4 | 24 | –
NCC1CCC(N)C(OC2C(N)CC(N)C(O)C2OC2OC(CO)C(OC3OC(CN)C(O)C(O)C3N)C2O)O1 (stereo not shown) [drawing 872, reference compound] | 0.4 | 0.53 | 0.73 | 10 | –
NCC1OC(OC2C(CO)OC(OC3C(O)C(N)CC(N)C3OC3OC(CN)C(O)C(F)C3N)C2O)C(N)C(O)C1O (stereo not shown) [drawing 884] | 2 | 4 | 8 | 100 | –
CCC(N)C1CCC(N)C(OC2C(N)CC(N)C(O)C2OC2OC(CO)C(OC3OC(CN)C(O)C(O)C3N)C2O)O1 (stereo not shown) [drawing 876] | 0.5 | 1.4 | 2 | 32 | –
NCC1OC(OC2C(CO)OC(OC3C(O)C(N)CC(N)C3OC3OC(CN)C(O)C(F)C3N)C2O)C(N)C(O)C1O (stereo not shown) [drawing 882] | 0.5 | 1 | 2 | 10 | –
